# From US20060030616A1, “Anhydride modified cantharidin analogues useful in the treatment of cancer” (priority 1998, published 2006)
# Assays:
# [1] = tested on: L1210 cells; test: MTT cytotoxicity assay, 72 h; format: cell-based, murine; details: Mus musculus, 72 h; L1210, p53 wt; read-out: IC50 (mean ± SE) after 72 h continuous exposure
# Description: (§1) Cells in a subconfluent phase are transferred to 96-well microtitre plates. L1210 cells are plated at a density of 1000 cells/well in 100 μl medium, while all other cell lines are plated at a density of 2000-25000 cells/well. The cells are left for 24 h prior to treatment to ensure exponential growth has been achieved, 24 h after plating (day 0), 100 μl of phosphatase inhibitor is added to each well, control wells received 100 μl of medium only. Drug exposure time is 72 h (day 3). The effect of phosphatase inhibition is tested in triplicate over a concentration range of […]−1×10^−8 M. Growth inhibitory effects are evaluated using the MTT assay and absorbance read at […]. The IC50 is the drug concentration at which cell growth is 50% inhibited based on the difference of optical density on day 0 and day 3 of drug exposure. Cytotoxicity is evaluated using a spectrophotometric assay which determines the percentage of cell growth following exposure of the cells to various concentrations of the phosphatase inhibitors for a period of 72 hours. The subsequent dose response curve is used to calculate IC50 values (the drug concentration at which cell growth is 50% inhibited).
# (§2) Anti-cancer screening of the protein phosphatase inhibitors is assessed using the MTT assay. This assay determines cell viability by the ability of mitochondrial dehydrogenase to produce formazan crystals from 3-(4,5-dimethylthiazol-2-yl)-2,5-diphenyltetrazolium bromide. The viable cell number/well is directly proportional to the production of formazan, which following solubilization, can be measured spectrophotometrically (540 nm). This technique is also used by the National Cancer Institute to screen for new anticancer agents.
# (§3) As described herein a number of cantharidin analogues have been synthesised and tested for their anticancer activity in nine cancer cell lines using the MTT assay after 72 h exposure. These new analogues are shown in FIG. 2 and have been designated MK-1 through to MK-9.
# [2] = tested on: HL60 cells; test: Checkpoint abrogation after 6 Gy radiation, flow cytometry; format: cell-based, human; details: 12 h after drug
# Description: (§4) The cells are fixed in 70% ethanol and stored at −20° C. until analysis is performed (1-2 weeks). After fixing, the cells are pelleted and incubated in PBS containing propidium iodide ([…]) and RNase A (200 mg/ml) for at least 30 min at room temperature. The samples (2×10^4 events) are analysed using a Becton Dickson FACScan, fluorescence is collected in fluorescence detector 2 (FL2), filter 575/30 nm band pass. Cell cycle distribution is assessed using Cell Quest software (Becton Dickson).
# (§5) The ability of the protein phosphatase inhibitors to abrogate the G1 or G2 checkpoint of the cell cycle may be determined by cell cycle analysis using flow cytometry. Briefly, asynchronous cell cultures are harvested 18 h after 6 Gy irradiation and/or 12 h incubation with the protein phosphatase inhibitor. Depending upon the p53 status of the cell line, radiation treatment alone will induce arrest in either G1 and/or G2 phase of the cell cycle.
# (§6) If the protein phosphatase inhibitor abrogates the G2 checkpoint then the cells will not arrest in the G2 phase of the cell cycle and the cells will continue through the cell cycle and accumulate in the G1 phase of the cell cycle only. Similarily if the protein phosphatase inhibitors abrogates the G1 checkpoint then the cells will not arrest in the G1 phase of the cell cycle and accumulate in the G2 phase of the cell cycle only. Cell cycle analysis using propidium iodide labelling of DNA has been used extensively in our laboratory to assess the effect of specific anticancer agents that induce S-phase cell cycle arrest and apoptotic cell death (Sakoff, Ackland and Stewart, 1998). Experiments were performed on a Becton Dickinson FACScan and using Cell Quest software.
# (§7) The cells were treated with 6 Gy of radiation and then treated with cantharidin 6 h later. The ability to abrogate cell cycle arrest was assessed is 12 h after the addition of the drugs.
# [3] = tested on: HCT116 cells; test: as above; format: cell-based, human; details: 12 h after drug
# Description: as §4, §5, §6, §7
# [4] = tested on: HT29 cells; test: as above; format: cell-based, human; details: 12 h after drug
# Description: as §4, §5, §6, §7
# [5] = tested on: nine cancer cell lines; test: MTT cytotoxicity assay, 72 h, ranges over cell line panel; format: cell-based; details: nine cell lines, read-out: IC50 range across all cell lines tested
# Description: as §1, §2, §3
structure (smiles),measurement,setting,value
"C[C@@]12C(=O)OC(=O)[C@]1(C)[C@H]1CC[C@@H]2O1 [Cantharidin, exo.exo-2.3-dimethyl-7-oxobicyclo[2.2.1]heptane-2,3-dicarboxylic acid anhydride]",IC50,[1],18 µM
same,"Cell Cycle Distribution, G1","[2]; HL60, 1 μM, 18 h after 6Gy",5.2 percentage of total
same,"Cell Cycle Distribution, G2 + M","[2]; HL60, 1 μM, 18 h after 6Gy",85.8 percentage of total
same,"Cell Cycle Distribution, S","[2]; HL60, 1 μM, 18 h after 6Gy",3.0 percentage of total
same,"Cell Cycle Distribution, sub G","[2]; HL60, 1 μM, 18 h after 6Gy",6.2 percentage of total
same,"Cell Cycle Distribution, G1","[2]; HL60, 5 μM, 18 h after 6Gy",5.7 percentage of total
same,"Cell Cycle Distribution, G2 + M","[2]; HL60, 5 μM, 18 h after 6Gy",86.8 percentage of total
same,"Cell Cycle Distribution, S","[2]; HL60, 5 μM, 18 h after 6Gy",3.5 percentage of total
same,"Cell Cycle Distribution, sub G","[2]; HL60, 5 μM, 18 h after 6Gy",4.4 percentage of total
same,"Cell Cycle Distribution, G1","[2]; HL60, 10 μM, 18 h after 6Gy",5.6 percentage of total
same,"Cell Cycle Distribution, G2 + M","[2]; HL60, 10 μM, 18 h after 6Gy",85.1 percentage of total
same,"Cell Cycle Distribution, S","[2]; HL60, 10 μM, 18 h after 6Gy",4.3 percentage of total
same,"Cell Cycle Distribution, sub G","[2]; HL60, 10 μM, 18 h after 6Gy",5.3 percentage of total
same,"Cell Cycle Distribution, G1","[2]; HL60, 50 μM, 18 h after 6Gy",10.2 percentage of total
same,"Cell Cycle Distribution, G2 + M","[2]; HL60, 50 μM, 18 h after 6Gy",64.9 percentage of total
same,"Cell Cycle Distribution, S","[2]; HL60, 50 μM, 18 h after 6Gy",11.3 percentage of total
same,"Cell Cycle Distribution, sub G","[2]; HL60, 50 μM, 18 h after 6Gy",14.3 percentage of total
same,Checkpoint remark,"[2]; HL60, 50 μM, 18 h after 6Gy",Cell Death
same,Checkpoint abrogation,"[2]; HL60, 6 Gy",abrogated radiation induced G1 arrest
same,"Cell Cycle Distribution, G1","[3]; HCT116, 1 μM, 18 h after 6Gy",26.1 percentage of total
same,"Cell Cycle Distribution, G2 + M","[3]; HCT116, 1 μM, 18 h after 6Gy",58.2 percentage of total
same,"Cell Cycle Distribution, S","[3]; HCT116, 1 μM, 18 h after 6Gy",13.8 percentage of total
same,"Cell Cycle Distribution, sub G","[3]; HCT116, 1 μM, 18 h after 6Gy",4.2 percentage of total
same,"Cell Cycle Distribution, G1","[3]; HCT116, 5 μM, 18 h after 6Gy",23.6 percentage of total
same,"Cell Cycle Distribution, G2 + M","[3]; HCT116, 5 μM, 18 h after 6Gy",63.3 percentage of total
same,"Cell Cycle Distribution, S","[3]; HCT116, 5 μM, 18 h after 6Gy",10.4 percentage of total
same,"Cell Cycle Distribution, sub G","[3]; HCT116, 5 μM, 18 h after 6Gy",4.0 percentage of total
same,"Cell Cycle Distribution, G1","[3]; HCT116, 10 μM, 18 h after 6Gy",25.7 percentage of total
same,"Cell Cycle Distribution, G2 + M","[3]; HCT116, 10 μM, 18 h after 6Gy",62.2 percentage of total
same,"Cell Cycle Distribution, S","[3]; HCT116, 10 μM, 18 h after 6Gy",9.4 percentage of total
same,"Cell Cycle Distribution, sub G","[3]; HCT116, 10 μM, 18 h after 6Gy",4.2 percentage of total
same,"Cell Cycle Distribution, G1","[3]; HCT116, 50 μM, 18 h after 6Gy",12.2 percentage of total
same,"Cell Cycle Distribution, G2 + M","[3]; HCT116, 50 μM, 18 h after 6Gy",63.3 percentage of total
same,"Cell Cycle Distribution, S","[3]; HCT116, 50 μM, 18 h after 6Gy",15.6 percentage of total
same,"Cell Cycle Distribution, sub G","[3]; HCT116, 50 μM, 18 h after 6Gy",12.0 percentage of total
same,Checkpoint remark,"[3]; HCT116, 50 μM, 18 h after 6Gy",G1 abrogation
same,Checkpoint abrogation,"[3]; HCT116, 6 Gy",abrogated radiation induced G1 arrest
same,"Cell Cycle Distribution, G1","[4]; HT29, 1 μM, 18 h after 6Gy",35.2 percentage of total
same,"Cell Cycle Distribution, G2 + M","[4]; HT29, 1 μM, 18 h after 6Gy",38.2 percentage of total
same,"Cell Cycle Distribution, S","[4]; HT29, 1 μM, 18 h after 6Gy",10.6 percentage of total
same,"Cell Cycle Distribution, sub G","[4]; HT29, 1 μM, 18 h after 6Gy",16.6 percentage of total
same,"Cell Cycle Distribution, G1","[4]; HT29, 5 μM, 18 h after 6Gy",38.6 percentage of total
same,"Cell Cycle Distribution, G2 + M","[4]; HT29, 5 μM, 18 h after 6Gy",46.3 percentage of total
same,"Cell Cycle Distribution, S","[4]; HT29, 5 μM, 18 h after 6Gy",10.6 percentage of total
same,"Cell Cycle Distribution, sub G","[4]; HT29, 5 μM, 18 h after 6Gy",5.3 percentage of total
same,"Cell Cycle Distribution, G1","[4]; HT29, 10 μM, 18 h after 6Gy",21.1 percentage of total
same,"Cell Cycle Distribution, G2 + M","[4]; HT29, 10 μM, 18 h after 6Gy",60.8 percentage of total
same,"Cell Cycle Distribution, S","[4]; HT29, 10 μM, 18 h after 6Gy",12.3 percentage of total
same,"Cell Cycle Distribution, sub G","[4]; HT29, 10 μM, 18 h after 6Gy",6.4 percentage of total
same,"Cell Cycle Distribution, G1","[4]; HT29, 50 μM, 18 h after 6Gy",23.0 percentage of total
same,"Cell Cycle Distribution, G2 + M","[4]; HT29, 50 μM, 18 h after 6Gy",43.1 percentage of total
same,"Cell Cycle Distribution, S","[4]; HT29, 50 μM, 18 h after 6Gy",20.7 percentage of total
same,"Cell Cycle Distribution, sub G","[4]; HT29, 50 μM, 18 h after 6Gy",14.7 percentage of total
same,Checkpoint remark,"[4]; HT29, 50 μM, 18 h after 6Gy",G1 abrogation
same,Checkpoint abrogation,"[4]; HT29, 6 Gy",abrogated radiation induced G1 arrest
same,IC50,[5],6.1 to 18 µM
